Experimental data taken from ChEMBL document CHEMBL3297661, “1-Substituted-5-[(3,5-dinitrobenzyl)sulfanyl]-1H-tetrazoles and their isosteric analogs: A new class of selective antitubercular agents active against drug-susceptible and multidrug-resistant mycobacteria” (Eur J Med Chem, 2014).

Key:
Candida tropicalis [1] = assay: Antifungal activity against Candida tropicalis 156 after 24 hrs by broth microdilution method; format: functional; conditions: Candida tropicalis, 156, 24 h
Mycobacterium kansasii [2] = assay: Antimycobacterial activity against Mycobacterium kansasii 6509/96 after 21 days by micromethod; format: functional; conditions: 6509/96, 504 h
[3] = system: Staphylococcus epidermidis; assay: Antibacterial activity against Staphylococcus epidermidis H 6966/08 after 24 hrs by broth microdilution method; format: functional; conditions: H 6966/08, 24 h
Aspergillus fumigatus [4] = assay: Antifungal activity against Aspergillus fumigatus 231 after 24 hrs by broth microdilution method; format: functional, organism-based; conditions: Aspergillus fumigatus, 231, 24 h
Escherichia coli [5] = assay: Antibacterial activity against Escherichia coli ATCC 8739 after 24 hrs by broth microdilution method; format: functional; conditions: ATCC 8739, ATCC 8739, 24 h
Trichosporon asahii [6] = assay: Antifungal activity against Trichosporon asahii 1188 after 48 hrs by broth microdilution method; format: functional; conditions: Trichosporon asahii, 1188, 48 h
Aspergillus fumigatus [7] = assay: Antifungal activity against Aspergillus fumigatus 231 after 48 hrs by broth microdilution method; format: functional, organism-based; conditions: Aspergillus fumigatus, 231, 48 h
Klebsiella pneumoniae [8] = assay: Antibacterial activity against extended spectrum beta-lactamase producing Klebsiella pneumoniae J 14368/08 after 48 hrs by broth microdilution method; format: functional; conditions: J 14368/08, 48 h
[9] = Cytotoxicity against human HuH7 cells assessed as reduction in cell viability after 48 hrs by MTT assay; format: cell-based; conditions: Huh-7, 48 h
Enterococcus faecalis [10] = assay: Antibacterial activity against Enterococcus faecalis J 14365/08 after 24 hrs by broth microdilution method; format: functional; conditions: J 14365/08, 24 h
Staphylococcus aureus [11] = assay: Antibacterial activity against Staphylococcus aureus ATCC 6538 after 24 hrs by broth microdilution method; format: functional; conditions: ATCC 6538, 24 h
[12] = system: Staphylococcus epidermidis; assay: Antibacterial activity against Staphylococcus epidermidis H 6966/08 after 48 hrs by broth microdilution method; format: functional; conditions: H 6966/08, 48 h
Escherichia coli [13] = assay: Antibacterial activity against Escherichia coli ATCC 8739 after 48 hrs by broth microdilution method; format: functional; conditions: ATCC 8739, ATCC 8739, 48 h
Mycobacterium avium [14] = assay: Antimycobacterial activity against Mycobacterium avium CNCTC My 330/88 after 21 days by micromethod; format: functional; conditions: CNCTC My 330/88, 504 h
Trichosporon asahii [15] = assay: Antifungal activity against Trichosporon asahii 1188 after 24 hrs by broth microdilution method; format: functional; conditions: Trichosporon asahii, 1188, 24 h
Lichtheimia corymbifera [16] = assay: Antifungal activity against Absidia corymbifera 272 after 24 hrs by broth microdilution method; format: functional, organism-based; conditions: Lichtheimia corymbifera, 272, 24 h
Pseudomonas aeruginosa [17] = assay: Antibacterial activity against Pseudomonas aeruginosa ATCC 9027 after 24 hrs by broth microdilution method; format: functional; conditions: ATCC 9027, 24 h
Pseudomonas aeruginosa [18] = assay: Antibacterial activity against Pseudomonas aeruginosa ATCC 9027 after 48 hrs by broth microdilution method; format: functional; conditions: ATCC 9027, 48 h
Mycobacterium kansasii [19] = assay: Antimycobacterial activity against Mycobacterium kansasii CNCTC My 235/80 after 14 days by micromethod; format: functional; conditions: CNCTC My 235/80, 336 h
Staphylococcus aureus [20] = assay: Antibacterial activity against methicillin-resistant Staphylococcus aureus H 5996/08 after 24 hrs by broth microdilution method; format: functional; conditions: H 5996/08, 24 h
Mycobacterium kansasii [21] = assay: Antimycobacterial activity against Mycobacterium kansasii CNCTC My 235/80 after 7 days by micromethod; format: functional; conditions: CNCTC My 235/80, 168 h
Nakaseomyces glabratus [22] = assay: Antifungal activity against Candida glabrata 20/I after 24 hrs by broth microdilution method; format: functional
HepG2 = assay: Cytotoxicity against human HepG2 cells assessed as reduction in cell viability after 48 hrs by MTT assay; format: cell-based; conditions: HepG2, 48 h
Klebsiella pneumoniae [23] = assay: Antibacterial activity against extended spectrum beta-lactamase producing Klebsiella pneumoniae J 14368/08 after 24 hrs by broth microdilution method; format: functional; conditions: J 14368/08, 24 h
[24] = Cytotoxicity against MDCK2 cells assessed as cell viability at 30 uM after 48 hrs by MTT assay; format: cell-based, Canis lupus familiaris, MDCK-II; conditions: dog, read-out: Activity
[25] = system: Mycobacterium tuberculosis; assay: Antimycobacterial activity against Mycobacterium tuberculosis CNCTC My 331/88 after 21 days by micromethod; format: functional; conditions: CNCTC My 331/88, 504 h
Candida albicans [26] = assay: Antifungal activity against Candida albicans ATCC 44859 after 48 hrs by broth microdilution method; format: functional; conditions: ATCC 44859, 48 h
Klebsiella pneumoniae [27] = assay: Antibacterial activity against Klebsiella pneumoniae D 11750/08 after 48 hrs by broth microdilution method; format: functional; conditions: D 11750/08, 48 h
Candida albicans [28] = assay: Antifungal activity against Candida albicans ATCC 44859 after 24 hrs by broth microdilution method; format: functional; conditions: ATCC 44859, 24 h
HeLa = assay: Cytotoxicity against human HeLa cells assessed as reduction in cell viability after 48 hrs by MTT assay; format: cell-based
Pichia kudriavzevii [29] = assay: Antifungal activity against Candida krusei E28 after 48 hrs by broth microdilution method; format: functional; conditions: E28, 48 h
Staphylococcus aureus [30] = assay: Antibacterial activity against Staphylococcus aureus ATCC 6538 after 48 hrs by broth microdilution method; format: functional; conditions: ATCC 6538, 48 h
Pichia kudriavzevii [31] = assay: Antifungal activity against Candida krusei E28 after 24 hrs by broth microdilution method; format: functional; conditions: E28, 24 h
[32] = system: Mycobacterium tuberculosis; assay: Antimycobacterial activity against Mycobacterium tuberculosis CNCTC My 331/88 after 14 days by micromethod; format: functional; conditions: CNCTC My 331/88, 336 h
Mycobacterium kansasii [33] = assay: Antimycobacterial activity against Mycobacterium kansasii 6509/96 after 14 days by micromethod; format: functional; conditions: 6509/96, 336 h
Mycobacterium kansasii [34] = assay: Antimycobacterial activity against Mycobacterium kansasii CNCTC My 235/80 after 21 days by micromethod; format: functional; conditions: CNCTC My 235/80, 504 h
Nakaseomyces glabratus [35] = assay: Antifungal activity against Candida glabrata 20/I after 48 hrs by broth microdilution method; format: functional
Staphylococcus aureus [36] = assay: Antibacterial activity against methicillin-resistant Staphylococcus aureus H 5996/08 after 48 hrs by broth microdilution method; format: functional; conditions: H 5996/08, 48 h
Enterococcus faecalis [37] = assay: Antibacterial activity against Enterococcus faecalis J 14365/08 after 48 hrs by broth microdilution method; format: functional; conditions: J 14365/08, 48 h
[38] = Cytotoxicity against human HuH7 cells assessed as cell viability at 30 uM after 48 hrs by MTT assay; format: cell-based, Huh-7; conditions: read-out: Activity
[39] = system: Trichophyton mentagrophytes; assay: Antifungal activity against Trichophyton mentagrophytes 445 after 72 hrs by broth microdilution method; format: functional, organism-based; conditions: Trichophyton mentagrophytes, 445, 72 h
[40] = Cytotoxicity against human HeLa cells assessed as cell viability at 30 uM after 48 hrs by MTT assay; format: cell-based; conditions: read-out: Activity
[41] = Cytotoxicity against MDCK2 cells assessed as reduction in cell viability after 48 hrs by MTT assay; format: cell-based; conditions: Canis lupus familiaris, MDCK-II
[42] = Cytotoxicity against human HepG2 cells assessed as cell viability at 30 uM after 48 hrs by MTT assay; format: cell-based; conditions: read-out: Activity
Mycobacterium kansasii [43] = assay: Antimycobacterial activity against Mycobacterium kansasii 6509/96 after 7 days by micromethod; format: functional; conditions: 6509/96, 168 h
Mycobacterium avium [44] = assay: Antimycobacterial activity against Mycobacterium avium CNCTC My 330/88 after 14 days by micromethod; format: functional; conditions: CNCTC My 330/88, 336 h
Lichtheimia corymbifera [45] = assay: Antifungal activity against Absidia corymbifera 272 after 48 hrs by broth microdilution method; format: functional, organism-based; conditions: Lichtheimia corymbifera, 272, 48 h
[46] = system: Trichophyton mentagrophytes; assay: Antifungal activity against Trichophyton mentagrophytes 445 after 120 hrs by broth microdilution method; format: functional, organism-based; conditions: Trichophyton mentagrophytes, 445, 120 h
Klebsiella pneumoniae [47] = assay: Antibacterial activity against Klebsiella pneumoniae D 11750/08 after 24 hrs by broth microdilution method; format: functional; conditions: D 11750/08, 24 h
Candida tropicalis [48] = assay: Antifungal activity against Candida tropicalis 156 after 48 hrs by broth microdilution method; format: functional; conditions: Candida tropicalis, 156, 48 h

O=[N+]([O-])c1cc(C[Se]c2nnnn2Cc2ccccc2)cc([N+](=O)[O-])c1
1 µM: MIC [32]
> 500 µM: IC80 (Candida tropicalis [1]) | IC95 [3] | IC50 (Aspergillus fumigatus [4]) | IC95 (Escherichia coli [5]) | IC80 (Trichosporon asahii [6]) | IC50 (Aspergillus fumigatus [7]) | IC95 (Klebsiella pneumoniae [8]) | IC95 (Enterococcus faecalis [10]) | IC95 (Staphylococcus aureus [11]) | IC95 [12] | IC95 (Escherichia coli [13]) | IC80 (Trichosporon asahii [15]) | IC50 (Lichtheimia corymbifera [16]) | IC95 (Pseudomonas aeruginosa [17]) | IC95 (Pseudomonas aeruginosa [18]) | IC95 (Staphylococcus aureus [20]) | IC80 (Nakaseomyces glabratus [22]) | IC95 (Klebsiella pneumoniae [23]) | IC80 (Candida albicans [26]) | IC95 (Klebsiella pneumoniae [27]) | IC80 (Candida albicans [28]) | IC80 (Pichia kudriavzevii [29]) | IC95 (Staphylococcus aureus [30]) | IC80 (Pichia kudriavzevii [31]) | IC80 (Nakaseomyces glabratus [35]) | IC95 (Staphylococcus aureus [36]) | IC95 (Enterococcus faecalis [37]) | IC50 [39] | IC50 (Lichtheimia corymbifera [45]) | IC50 [46] | IC95 (Klebsiella pneumoniae [47]) | IC80 (Candida tropicalis [48])
2 µM: MIC (Mycobacterium kansasii [21]) | MIC [25]
16.5 µM: IC50 (HepG2)
8 µM: MIC (Mycobacterium kansasii [2]) | MIC (Mycobacterium kansasii [33])
32 µM: MIC (Mycobacterium avium [14]) | MIC (Mycobacterium avium [44])
22 µM: IC50 [41]
70%: viability at 48 h, 30 µM [38]
54%: viability at 48 h, 30 µM [40]
41%: viability at 48 h, 30 µM [24]
4 µM: MIC (Mycobacterium kansasii [19]) | MIC (Mycobacterium kansasii [34]) | MIC (Mycobacterium kansasii [43])
33%: viability at 48 h, 30 µM [42]
> 30 µM: IC50 [9] | IC50 (HeLa)
